Test results taken from patent US10306878B2, “Insect pest control agent” (priority 2013, dated 2019).

System: female cockroach (periplaneta fuliginosa)
Assay: Efficacy Test 1: Concentrate Dropping Test
Assay type: in vivo
Details: for Time until the subject insect stops moving (seconds) Average / Time until the subject insect stops moving (seconds) No. 1 / Time until the subject insect stops moving (seconds) No. 2 / Time until the subject insect stops moving (seconds) No. 3 / Time until the subject insect stops moving (seconds) No. 4 / Time until the subject insect stops moving (seconds) No. 5: 0.5 mL dropped between thorax and abdomen; for Time until the subject insect stops moving (seconds) Average: average of five tests; for Time until the subject insect stops moving (seconds) No. 1: repeat No. 1; for Time until the subject insect stops moving (seconds) No. 2: repeat No. 2; for Time until the subject insect stops moving (seconds) No. 3: repeat No. 3; for Time until the subject insect stops moving (seconds) No. 4: repeat No. 4; for Time until the subject insect stops moving (seconds) No. 5: repeat No. 5; for Lethality (%) after 24 hours: 0.5 mL dropped, 24 hours at 20° C., humidity 26%, five tests
Method: A plastic cup (capacity of 860 ml) that is open at the top was provided, and butter was spread on the upper part of the cup interior. Then, as a subject insect, one female cockroach (periplaneta fuliginosa) was gently placed on its back at the bottom of the plastic cup.
After confirming that the subject insect is lying on its back, 0.5 mL of the subject agent in Table 1 was dropped on to the insect between the thorax and the abdomen using a pipet, and the time (seconds) until the subject insect's movement completely stopped was measured.
Subsequently, the subject insect was transferred to another plastic cup and left in a room having a temperature of 20° C. and a humidity of 26%. The number of subject insects that died after 24 hours was counted. The test was repeated five times to obtain the lethality (%) based on the average of the results.

| Structure (SMILES) | Time until the subject insect stops moving (seconds) Average [s] | Time until the subject insect stops moving (seconds) No. 1 [s] | Time until the subject insect stops moving (seconds) No. 2 [s] | Time until the subject insect stops moving (seconds) No. 3 [s] | Time until the subject insect stops moving (seconds) No. 4 [s] | Time until the subject insect stops moving (seconds) No. 5 [s] | Lethality (%) after 24 hours [%] |
| --- | --- | --- | --- | --- | --- | --- | --- |
| FC(F)C(F)(F)C(F)(F)C(F)(F)C(F)(F)C(F)(F)F [Comparative Example 2, 1H-Tridecafluorohexane] | 56.4 | 54 | 50 | 53 | 62 | 63 | 40 |
| FC(F)(F)/C=C/Cl [Example 1, Trans-1-chloro-3,3,3-trifluoropropene] | 1.4 | 2 | 1 | 1 | 1 | 2 | 80 |
